Reference: patent US20250161409A1, “COMPOSITIONS FOR TREATING HYPERHIDROSIS” (PROSPERA BIOTECH, S.L., priority 2022, published 2025)
No end group written: not given here.

Experiments:
[1] = Attenuation of excessive sweating / hyperhidrosis (summary statements); type: in vivo
[2] = system: permeabilized chromaffin cells; assay: Inhibition of calcium-induced release of catecholamines in digitonin-permeabilized chromaffin cells; type: cell-based; details: 1 mM peptide
Text: The neuronal-exocytosis (neurosecretion) inhibiting capabilities of the known neuronal exocytosis inhibitors became evident through a test that evaluates the strength of said compounds in inhibiting the release of catecholamines induced by calcium in chromaffin cells permeabilized with the detergent digitonin, in accordance with the method described by Gutiérrez et al. (FEBS Lett 1995, 372, 39-43, and J. Biol. Chem. 1997, 272, 2634-2639); as well as an in vitro reconstitution test of the fusion complex (SNARE).
Briefly, the chromaffin cell cultures are incubated with [3 H]-epinephrine and [3 H]-norepinephrine, are permeabilized with 20 μM digitonin, and stimulated with calcium (10 μM), in the presence of the compounds to be tested, and the amount of radioactivity released by the cells to the extracellular medium, which is a reflection of the exocytosis of [3 H]-epinephrine and [3 H]-norepinephrine, is measured.

[3] = system: fusion protein complex (SNARE); assay: In vitro reconstitution (ELISA) of the fusion protein complex (SNARE); type: biochemical; details: peptide present during the assembly of the fusion complex
Procedure: An additional test of in vitro reconstitution was performed to determine the ability of the peptides to interfere with the formation and stability of the fusion complex (SNARE). The test consists of evaluating the in vitro reconstitution of the fusion protein complex with recombinant proteins produced in Escherichia coli. The reconstitution tests, based on ELISA (Enzyme-Linked Immuno Assay) methods, involve the immobilization of protein SNAP-25 in 96-well plates and the subsequent formation of the fusion protein complex by adding the proteins VAMP and syntaxin in the presence and/or absence of the peptides of the invention. The detection of the complex was performed using an antibody against protein syntaxin (anti-syntaxin), followed by an antibody which recognizes the anti-syntaxin antibody, covalently tagged with a peroxidase. The amount of fusion protein complex was tracked by adding 1,2-phenylenediamine dichloride, whose reaction with the peroxidase produces a product with an orangish-yellow color that absorbs 492 nm in an acid medium.

| Compound | attenuation of excessive sweating ([1]; 0.1-0.01%) | attenuation of hyperhidrosis and excessive sweating ([1]; formulation containing 0.5-1.0% Argireline) | inhibition of the release of catecholamines [2] | amount of fusion complex (SNARE) formed in presence of peptide [3] |
| --- | --- | --- | --- | --- |
| CCCCCCCCC(=O)OCC(=O)NCc1cc(OC)c(O)cc1I [Calmpasin®, 2-((4-hydroxy-2-iodo-5-methoxybenzyl)amino)-2-oxoethyl nonanoate] | unable to attenuate excessive sweating |  |  |  |
| Ac-Glu-Glu-Met-Gln-Arg-Arg (Ac-EEMQRR) [Argireline®, acetyl-hexapeptide commercialized under the tradename Argireline® by Lipotec, S. A] |  | modest effect |  |  |
| SEQ. ID NO. 1: peptide from the amino end of SNAP-25; 6 amino acid peptide whose acetylated derivative is Argireline (EEMQRR) |  |  | approximately 20% | significant decrease |
| SEQ. ID NO. 2: peptide from the amino end of SNAP-25 (ELEEMQRRADQLA) |  |  | approximately 35% | significant decrease |
